In patent US12590099B2, “Inhibitors of histone deacetylase useful for the treatment or prevention of HIV infection” (Merck Sharp & Dohme LLC, priority 2018, dated 2026):
pIC50: −log10 of the molar value. Where two headings read alike, the source gives them in different places.

Tests used:
Recombinant human HDAC1 = target: T1, Recombinant human HDAC1 (Homo sapiens, UniProt Q13547); test: Human HDAC enzyme inhibitor Fluor-de-Lys assay, HDAC1; type: biochemical
T1 construct: FLAG (C); made in house
T1 sequence (Q13547 whole entry): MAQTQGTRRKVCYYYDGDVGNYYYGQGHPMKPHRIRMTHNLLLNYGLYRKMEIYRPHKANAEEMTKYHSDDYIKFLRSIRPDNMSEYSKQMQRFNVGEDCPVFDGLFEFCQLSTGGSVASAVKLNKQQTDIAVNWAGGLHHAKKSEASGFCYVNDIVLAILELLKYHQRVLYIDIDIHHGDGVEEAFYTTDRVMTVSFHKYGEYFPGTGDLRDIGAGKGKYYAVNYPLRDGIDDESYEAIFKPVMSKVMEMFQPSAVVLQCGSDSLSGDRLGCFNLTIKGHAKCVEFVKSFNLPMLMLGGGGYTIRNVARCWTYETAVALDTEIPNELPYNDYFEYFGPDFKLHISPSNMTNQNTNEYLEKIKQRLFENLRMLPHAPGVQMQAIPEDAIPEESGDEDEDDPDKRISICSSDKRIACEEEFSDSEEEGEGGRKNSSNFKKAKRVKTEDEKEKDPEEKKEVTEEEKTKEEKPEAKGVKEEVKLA
Summary of the method: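 Fluor-de-Lys format at room temperature (23° C.): compounds titrated 10-point, 1:3, preincubated with HDAC before substrate addition; HDAC1 run at 0.3 nM enzyme with 20 μM BML-KI104. Developer with excess HDAC inhibitor ends the reaction, and trypsin-liberated AMC fluorescence is the read-out.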

Recombinant human HDAC2 = target: T2, Recombinant human HDAC2 (Homo sapiens, UniProt Q92769); test: Human HDAC enzyme inhibitor Fluor-de-Lys assay, HDAC2; type: biochemical
T2 construct: Full length human HDAC2-FLAG was expressed in baculovirus infected Sf9 cells; FLAG (C); made in house; host or cells: Sf9 (baculovirus)
T2 sequence (Q92769 whole entry): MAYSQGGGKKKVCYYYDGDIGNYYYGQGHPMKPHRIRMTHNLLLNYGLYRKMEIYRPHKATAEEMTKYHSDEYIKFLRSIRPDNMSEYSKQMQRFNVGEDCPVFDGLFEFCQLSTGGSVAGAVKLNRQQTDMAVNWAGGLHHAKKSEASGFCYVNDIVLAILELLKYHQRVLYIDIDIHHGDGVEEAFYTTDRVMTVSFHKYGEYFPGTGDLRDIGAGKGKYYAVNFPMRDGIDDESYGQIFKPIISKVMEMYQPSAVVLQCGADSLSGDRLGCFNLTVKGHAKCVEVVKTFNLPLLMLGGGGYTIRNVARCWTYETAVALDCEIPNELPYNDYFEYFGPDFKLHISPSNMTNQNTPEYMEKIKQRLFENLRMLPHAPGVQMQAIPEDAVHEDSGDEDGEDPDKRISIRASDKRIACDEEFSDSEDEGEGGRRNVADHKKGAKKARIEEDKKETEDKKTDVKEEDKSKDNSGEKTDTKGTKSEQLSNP
Summary of the method: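 Fluor-de-Lys format at room temperature (23° C.): compounds titrated 10-point, 1:3, preincubated with HDAC before substrate addition. Developer with excess HDAC inhibitor ends the reaction, and trypsin-liberated AMC fluorescence is the read-out.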

[1] = target: T3, Recombinant human HDAC3/SMRT heterodimer (Homo sapiens, UniProt O15379); test: Human HDAC enzyme inhibitor Fluor-de-Lys assay, HDAC3/SMRT; type: biochemical
T3 construct: FLAG (C); made in house
T3 sequence (O15379 whole entry): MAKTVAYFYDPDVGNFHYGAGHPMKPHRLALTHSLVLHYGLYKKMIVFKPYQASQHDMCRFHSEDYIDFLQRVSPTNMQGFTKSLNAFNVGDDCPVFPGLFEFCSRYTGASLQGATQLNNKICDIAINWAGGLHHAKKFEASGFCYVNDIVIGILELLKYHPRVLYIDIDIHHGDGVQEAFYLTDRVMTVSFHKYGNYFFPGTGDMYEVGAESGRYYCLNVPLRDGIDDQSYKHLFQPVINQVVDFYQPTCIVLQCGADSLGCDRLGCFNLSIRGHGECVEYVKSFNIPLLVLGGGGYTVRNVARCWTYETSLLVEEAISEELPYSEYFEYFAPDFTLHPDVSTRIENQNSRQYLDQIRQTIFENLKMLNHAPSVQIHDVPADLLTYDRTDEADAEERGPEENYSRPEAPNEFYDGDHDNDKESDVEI
T3 sequence (Q9Y618 1-899 partner limits assumed): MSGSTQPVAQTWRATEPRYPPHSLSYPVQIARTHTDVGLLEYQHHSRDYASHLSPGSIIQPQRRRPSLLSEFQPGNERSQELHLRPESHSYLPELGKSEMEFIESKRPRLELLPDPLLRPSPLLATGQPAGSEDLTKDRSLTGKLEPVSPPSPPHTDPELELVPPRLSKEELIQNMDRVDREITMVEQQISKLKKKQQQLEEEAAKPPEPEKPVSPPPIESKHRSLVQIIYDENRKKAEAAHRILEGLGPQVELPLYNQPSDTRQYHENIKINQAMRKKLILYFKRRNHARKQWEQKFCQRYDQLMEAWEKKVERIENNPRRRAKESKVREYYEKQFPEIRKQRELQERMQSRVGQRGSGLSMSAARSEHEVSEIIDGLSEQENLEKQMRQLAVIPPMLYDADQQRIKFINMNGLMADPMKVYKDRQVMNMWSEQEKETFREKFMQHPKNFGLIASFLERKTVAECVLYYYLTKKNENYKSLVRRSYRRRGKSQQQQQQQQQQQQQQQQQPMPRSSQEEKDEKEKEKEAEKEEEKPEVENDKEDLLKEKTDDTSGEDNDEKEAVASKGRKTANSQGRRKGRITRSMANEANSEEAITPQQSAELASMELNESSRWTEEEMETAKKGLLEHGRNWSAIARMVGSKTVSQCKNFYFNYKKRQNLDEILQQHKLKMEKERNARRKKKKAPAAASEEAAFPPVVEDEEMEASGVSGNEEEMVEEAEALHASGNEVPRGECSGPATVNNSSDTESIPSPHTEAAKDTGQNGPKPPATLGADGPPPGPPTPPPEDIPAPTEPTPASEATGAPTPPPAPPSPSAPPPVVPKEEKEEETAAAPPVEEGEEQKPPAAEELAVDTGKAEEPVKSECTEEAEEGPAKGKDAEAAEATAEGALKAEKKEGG

Recombinant human HDAC8 = target: T4, Recombinant human HDAC8 (Homo sapiens, UniProt Q9BY41); test: Human HDAC enzyme inhibitor Fluor-de-Lys assay, HDAC8; type: biochemical
T4 construct: purchased Enzo Life Sciences BML-SE145-0100
T4 sequence (Q9BY41 1-377): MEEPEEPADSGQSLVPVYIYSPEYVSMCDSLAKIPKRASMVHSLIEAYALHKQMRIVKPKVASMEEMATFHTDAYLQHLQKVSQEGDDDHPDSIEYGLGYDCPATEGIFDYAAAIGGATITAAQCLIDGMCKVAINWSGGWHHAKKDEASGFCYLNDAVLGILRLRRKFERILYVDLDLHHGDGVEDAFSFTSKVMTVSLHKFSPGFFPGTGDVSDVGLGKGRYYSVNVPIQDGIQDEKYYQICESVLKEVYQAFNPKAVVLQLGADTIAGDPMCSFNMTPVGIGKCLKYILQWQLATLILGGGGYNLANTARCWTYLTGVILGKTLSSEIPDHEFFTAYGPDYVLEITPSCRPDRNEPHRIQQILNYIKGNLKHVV

KARN cells (Jurkat 2C4) = test: cells; type: cell-based
Summary of the method: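 Jurkat 2C4 (KARN) cells dosed with test compounds up to 40 μM final, 0.4% DMSO, overnight at 5% CO2; luciferase read by Steady-Glo luminescence after 10 min at room temperature. DMSO set as 0% and 2 μM SAHA as 100% induction; 4-parameter fit of percent activation.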

[2] = Homo sapiens, Jurkat, read-out: Karn EC50 (nM) 0.1% NHS, 0.1% normal human serum
[3] = Homo sapiens, Jurkat, read-out: Karn EC50 (nM) 5% NHS, 5% normal human serum

Row | Structure (SMILES) | pIC50 (Recombinant human HDAC1) | pIC50 (Recombinant human HDAC2) | pIC50 [1] | pIC50 (Recombinant human HDAC8) | EC50 (KARN cells (Jurkat 2C4); [2]) [nM] | EC50 (KARN cells (Jurkat 2C4); [3]) [nM] | EC50 (KARN cells (Jurkat 2C4); read-out: Karn EC50 (nM) 0.1% NHS, 0.1% normal human serum) [nM] | EC50 (KARN cells (Jurkat 2C4); read-out: Karn EC50 (nM) 5% NHS, 5% normal human serum) [nM]
1 | CCC(=O)CCCCC[C@H](NC(=O)[C@H]1CC12CCN(CC1CC1)CC2)c1ncc(-c2ccc3nc(C4CC4)ccc3c2)[nH]1 [Compound 104] | > 8.82 | > 8.82 | > 8.82 | 5.30 | 33 | 28 |  | 
2 | CCC(=O)CCCCC[C@H](NC(=O)[C@H]1CC12CCN(C)CC2)c1[nH]c(-c2ccc(F)cc2)nc1C#N [Compound 76] | 8.41 | 7.71 | 8.54 | 4.78 | 233 | 409 |  | 
3 | CCC(=O)CCCCC[C@H](NC(=O)C1CC12CC1CCC(C2)N1C)c1ncc(-c2ccc3ncccc3c2)[nH]1 (single isomer, unassigned) [Compound 166] | 9.43 | 8.66 | 9.49 | 5.25 | 469 | 591 |  | 
4 | CCC(=O)CCCCC[C@H](NC(=O)C1=NOC2(CCN(C(C)C)CC2)C1)c1ncc(-c2cc3ccccc3nc2OC)[nH]1 [Compound 106, N-{(1S)-1-[5-(2-methoxyquinolin-3-yl)-1H-imidazol-2-yl]-7-oxononyl}-8-(1-methylethyl)-1-oxa-2,8-diazaspiro[4.5]dec-2-ene-3-carboxamide] | 8.76 | 8.10 | > 8.82 | 5.56 | 143 | 1070 |  | 
5 | CCC(=O)CCCCC[C@H](NC(=O)C1=NOC2(CCN(C)CC2)C1)c1ncc(-c2cc3ccc(C)nc3cc2F)o1 [Compound 221] | 8.06 | 7.26 | 7.86 | < 6.05 | 344 | 581 |  | 
6 | CCN1CCC2(CC1)C[C@@H]2C(=O)N[C@@H](CCCCCC(=O)CC1CC1)c1ncc(-c2cc3ccc(C)nc3cc2OC)[nH]1 [Compound 165] | 8.93 | 8.10 | 8.67 | 4.83 | 140 | 385 |  | 
7 | CCC(=O)CCCCC[C@H](NC(=O)[C@H]1CC12CCN(C)CC2)c1ncc(-c2ccc(-c3ccc(C4CC4)nc3)cc2)o1 [Compound 143] | 7.19 | 6.68 | 7.49 | 4.88 | 1240 | 1330 |  | 
8 | CCC(=O)CCCCC[C@H](NC(=O)[C@H]1CC12CCN(CC)CC2)c1ncc(-c2ccc(-c3cnc(C4CC4)cn3)cc2)o1 [Compound 129, (1S)—N-[(1S)-1-{5-[4-(5-cyclopropylpyrazin-2-yl)phenyl]-1,3-oxazol-2-yl}-7-oxononyl]-6-ethyl-6-azaspiro[2.5]octane-1-carboxamide] | 7.57 | 7.05 | 7.85 | 5.11 | 828 | 1240 |  | 
9 | CCC(=O)CCCCC[C@H](NC(=O)C1CCC2(CC1)CN(C)C2)c1ncc(-c2ccc3nn(C)cc3c2)[nH]1 [Compound 156] | 8.30 | 7.82 | 8.70 | 5.23 | 1360 | 1360 |  | 
10 | CCC(=O)CCCCC[C@H](NC(=O)C1CC12CCN(C)C(C)(C)C2)c1ncc(-c2ccc3nc(C)ccc3c2)[nH]1 (single isomer, unassigned) [Compound 133] | > 8.82 | 8.68 | > 8.82 | 5.69 |  |  | 89 | 81
11 | CCC(=O)CCCCC[C@H](NC(=O)[C@H]1CC12CCN(CC)CC2)c1nc(-c2cc3ccc(C)nc3cc2OC)cn1COC(=O)C(C)(C)C [Compound 215, {2-[(1S)-1-({[(1S)-6-ethyl-6-azaspiro[2.5]oct-1-yl]carbonyl}amino)-7-oxononyl]-4-(7-methoxy-2-methylquinolin-6-yl)-1H-imidazol-1-yl}methyl 2,2-dimethylpropanoate] | 9.05 | 8.40 | 8.94 | < 6.05 | 93 | 93 |  | 
12 | CCC(=O)CCCCC[C@H](NC(=O)[C@H]1CC12CCN(C)CC2)c1ncc(-c2ccc3cnc(OC)cc3c2)[nH]1 [Compound 113] | 8.86 | 8.18 | 8.85 | 5.66 | 58 | 107 |  | 
13 | CCC(=O)CCCCC[C@H](NC(=O)[C@H]1CC12CCN(CC)CC2)c1ncc(-c2ccc3c(=O)n(CC)ccc3c2)o1 [Compound 162] | 8.49 | 8.02 | 8.55 | < 4.35 | 257 | 305 |  | 
14 | CCC(=O)CCCCC[C@H](NC(=O)[C@H]1CC12CCN(CC)CC2)c1ncc(-c2ccc(-c3cnc(C4CC4)nc3)cc2)o1 [Compound 161] | 7.26 | 6.79 | 7.48 | 4.57 | 1370 | 1460 |  | 
15 | CCC(=O)CCCCC[C@H](NC(=O)[C@H]1CC12CCN(C)CC2)c1ncc(-c2ccc3c(=O)n(C)ccc3c2)o1 [Compound 137] | 8.11 | 7.76 | 8.33 | 4.47 | 434 | 443 |  | 
16 | CCC(=O)CCCCC[C@H](NC(=O)C1CC2(C1)CN(C)C2)c1ncc(-c2ccc3nn(C)cc3c2)[nH]1 [Compound 147] | 8.64 | 7.99 | > 8.82 | 5.56 | 3580 | 2850 |  | 
17 | CCC(=O)CCCCC[C@H](NC(=O)[C@H]1CC12CCN(C)CC2)c1ncc(-c2ccc3c(c2)C2CCC3C2)[nH]1 (stereo partly drawn) [Compound 74] | 8.09 | 7.44 | 8.43 | 5.34 | 351 | 376 |  | 
18 | CCC(=O)CCCCC[C@H](NCCN(C)C)c1ncc(-c2cc3ccc(C)nc3cc2OC)[nH]1 [Compound 217, (9S)-9-{[2-(dimethylamino)ethyl]amino}-9-[5-(7-methoxy-2-methylquinolin-6-yl)-1H-imidazol-2-yl]nonan-3-one] | 8.34 | 7.30 | 7.96 | < 6.05 | 576 | 518 |  | 
19 | CCC(=O)CCCCC[C@H](N)c1ncc(-c2ccc3nc(C)ccc3c2)[nH]1 [Compound 178] | 6.97 | 6.41 | 7.26 | 5.49 | 6790 | 10400 |  | 
20 | CCC(=O)CCCCC[C@H](NC(=O)[C@H]1CC12CCN(CC)CC2)c1ncc(-c2ccc3c(cnn3C3CC3)c2)[nH]1 [Compound 159] | 9.36 | 8.62 | 9.31 | 5.33 | 73 | 57 |  | 
